Experimental data: patent publication US9204653B2, “5-fluoro pyrimidine derivatives” (DOW AGROSCIENCES LLC, priority 2008, dated 2015)

Tested on: Mycosphaerella graminicola; Anamorph: Septoria tritici; Bayer Code SEPTTR
Assay: Leaf blotch of wheat, foliar fungicide treatment, one day protectant (1DP) or three day curative (3DC)
Format: in vivo, Septoria tritici on wheat plants (variety Yuma)
Conditions: Zymoseptoria tritici, 24 h, % disease control rating, one day protectant

| Structure (SMILES) | pest or weed control at 50 ppm [%] | pest or weed control at 200 ppm [%] |
| --- | --- | --- |
| Fc1ccc(COc2ncc(F)c(NCc3ccc(Cl)cc3)n2)cc1 [Compound 840] | 51 to 75 | 76 to 100 |
| Fc1cnc(OC2CCCCC2)nc1NCc1ccc2c(c1)OCO2 [Compound 841] | 51 to 75 | 76 to 100 |
| Fc1cnc(OCc2ccc(Cl)cc2)nc1NCc1ccc2c(c1)OCO2 [Compound 842] | 76 to 100 | 76 to 100 |
| Fc1cnc(OCCc2ccccc2)nc1NCc1cccs1 [Compound 843] | 26 to 50 | 76 to 100 |
| Cc1ccc(COc2ncc(F)c(NCc3ccc(Cl)nc3)n2)cc1 [Compound 844] | 76 to 100 | 76 to 100 |
| Nc1nc(OCC2CCCCC2)ncc1F [Compound 846] | 0 to 25 | 26 to 50 |
| Nc1nc(OCc2c(Cl)cccc2Cl)ncc1F [Compound 847] | 76 to 100 | – |
| Nc1nc(OC2CCCCC2)ncc1F [Compound 848] | 0 to 25 | 0 to 25 |
| COc1ncc(F)c(N)n1 [Compound 850] | 0 to 25 | 51 to 75 |
| Fc1ccc(COc2ncc(F)c(NCc3ccc(Cl)cc3)n2)cc1F [Compound 851] | 76 to 100 | 76 to 100 |
| Fc1ccccc1COc1ncc(F)c(NC2CC2)n1 [Compound 852] | 51 to 75 | 76 to 100 |
| CCOc1ncc(F)c(N)n1 [Compound 853] | 0 to 25 | 0 to 25 |
| Cc1ccc(COc2ncc(F)c(NCc3ccc4c(c3)OCO4)n2)cc1 [Compound 854] | 51 to 75 | 76 to 100 |
| Fc1cnc(OCc2ccc(OC(F)(F)F)cc2)nc1NC1CC1 [Compound 855] | – | 76 to 100 |
| Nc1nc(OCc2ccncc2)ncc1F [Compound 856] | – | 76 to 100 |
| Fc1cnc(OCc2ccco2)nc1NCc1ccc2c(c1)OCO2 [Compound 859] | 76 to 100 | 76 to 100 |
| Fc1cnc(OCC(F)(F)F)nc1NCCc1ccccc1 [Compound 861] | 0 to 25 | 26 to 50 |
| Fc1cnc(OCCc2ccccc2)nc1NCCc1ccccc1 [Compound 862] | 51 to 75 | 76 to 100 |
| Fc1ccccc1CNc1nc(OCc2ccc(Cl)cc2Cl)ncc1F [Compound 863] | 76 to 100 | 76 to 100 |
| Nc1nc(OCC(F)(F)F)ncc1F [Compound 864] | 0 to 25 | 26 to 50 |
| COc1ccccc1COc1ncc(F)c(NCc2ccccc2F)n1 [Compound 865] | 26 to 50 | 76 to 100 |
| Fc1cnc(OCc2cccs2)nc1NC1CC1 [Compound 866] | 0 to 25 | 76 to 100 |
| Fc1ccc(COc2ncc(F)c(NCc3cccs3)n2)cc1 [Compound 867] | 76 to 100 | 76 to 100 |
| Fc1cnc(OCc2cc(Cl)cc(Cl)c2)nc1NCc1ccc(Cl)cc1 [Compound 868] | 51 to 75 | 76 to 100 |
| COc1ccccc1COc1ncc(F)c(NCc2cccs2)n1 [Compound 869] | – | 76 to 100 |
| Fc1cnc(OCc2cc(Cl)cc(Cl)c2)nc1NC1CC1 [Compound 870] | – | 76 to 100 |
| Cc1ccc(CNc2nc(OCCc3ccccc3)ncc2F)cc1 [Compound 871] | 0 to 25 | 26 to 50 |

| Structure (SMILES) | pest or weed control at 50 ppm [%] | pest or weed control at 200 ppm [%] |
| --- | --- | --- |
| Cc1ccc(CNc2nc(OCC(F)(F)F)ncc2F)cc1 [Compound 872] | 26 to 50 | 51 to 75 |
| Fc1cnc(OCc2ccco2)nc1NCc1ccc(Cl)nc1 [Compound 873] | 0 to 25 | 0 to 25 |
| Fc1cnc(OCc2cccs2)nc1NCc1ccc(Cl)nc1 [Compound 874] | 0 to 25 | 0 to 25 |
| Cc1ccc(CNc2nc(OC3CCCCC3)ncc2F)cc1 [Compound 875] | 0 to 25 | 76 to 100 |
| Fc1cnc(OCc2c(Cl)cccc2Cl)nc1NC1CC1 [Compound 877] | – | 76 to 100 |
| Nc1nc(OCc2cccc(Oc3ccccc3)c2)ncc1F [Compound 878] | 76 to 100 | 76 to 100 |
| Fc1cnc(OCc2ccccc2Cl)nc1NCc1ccc(Cl)cc1 [Compound 879] | 76 to 100 | 76 to 100 |
| Fc1cnc(OCCc2ccccc2)nc1NCc1ccc(Cl)nc1 [Compound 880] | 0 to 25 | 26 to 50 |
| Cc1ccc(COc2ncc(F)c(NC3CC3)n2)cc1 [Compound 881] | 76 to 100 | 76 to 100 |
| Fc1ccc(COc2ncc(F)c(NCc3ccc4c(c3)OCO4)n2)cc1 [Compound 882] | 76 to 100 | 76 to 100 |
| Fc1ccccc1CNc1nc(OCc2ccc(Cl)c(Cl)c2)ncc1F [Compound 883] | 76 to 100 | 76 to 100 |
| CCOCCOc1cccc(COc2ncc(F)c(NC(C)=O)n2)c1 [Compound 884] | 76 to 100 | 76 to 100 |
| Fc1cnc(OCc2ccc(Cl)cc2)nc1NCC(F)(F)F [Compound 885] | 26 to 50 | 51 to 75 |
| Cc1cnc(CNc2nc(OCc3ccc(Cl)cc3)ncc2F)cn1 [Compound 886] | 76 to 100 | 76 to 100 |
| Fc1cnc(OCc2cccc(Cl)c2)nc1NC1CC1 [Compound 887] | – | 76 to 100 |
| Fc1ccccc1CNc1nc(OCc2ccccn2)ncc1F [Compound 888] | 0 to 25 | 51 to 75 |
| Fc1ccc(COc2ncc(F)c(NCc3cccs3)n2)cc1F [Compound 890] | – | 76 to 100 |
| Nc1nc(OCc2ccccn2)ncc1F [Compound 891] | 76 to 100 | 76 to 100 |
| Cc1ccc(COc2ncc(F)c(NCc3ccc(Cl)cc3)n2)cc1 [Compound 892] | 51 to 75 | 76 to 100 |
| Fc1ccccc1CNc1nc(OCc2ccccc2Cl)ncc1F [Compound 893] | 76 to 100 | 76 to 100 |
| Fc1cnc(OCc2ccc(C(F)(F)F)cc2)nc1NCc1cccs1 [Compound 896] | – | 76 to 100 |
| Fc1ccc(COc2ncc(F)c(N3CCOCC3)n2)cc1 [Compound 897] | 0 to 25 | 51 to 75 |
| Fc1cnc(OCc2ccco2)nc1NC1CC1 [Compound 898] | 0 to 25 | 0 to 25 |
| Fc1cnc(OCc2ccco2)nc1NCc1cccs1 [Compound 899] | 26 to 50 | 76 to 100 |
| Cc1cnc(CNc2nc(OCc3ccc(F)cc3)ncc2F)cn1 [Compound 900] | 51 to 75 | 76 to 100 |
| Fc1ccc(COc2ncc(F)c(NCc3ccc(Cl)nc3)n2)cc1 [Compound 901] | 51 to 75 | 76 to 100 |
| Fc1cnc(OCc2ccncc2)nc1NCc1cccs1 [Compound 902] | – | 76 to 100 |
